{"source": "patent US12110258B2", "about": "“Coated fertilizer containing urease inhibitor” (SABIC Agri-Nutrients Company, priority 2018, dated 2024)", "experiment": "Inhibitor Stability Test (HPLC, non-degraded NBTPT remaining after storage)", "settings": "2 weeks, RT (23 to 26° C.)", "description": "Inhibitor Stability Test: The stability test is used to indicate changes in stability of the urease inhibitor in different coated fertilizers or coating compositions under multiple conditions for different amounts of time. HPLC analysis was used to determine the amount of non-degraded inhibitor remaining at the end of the testing periods. Briefly, for the HPLC analysis procedure, approximately 4 grams of a sample and 20 ml of diluent was added into a 50 ml polypropylene tube. The sample was sonicated for 30 minutes with intermediate shaking and then vortexed for 1 hour using a vortex shaker. After vortexing, the sample was filtered using a 0.45μ syringe filter into a HPLC vial and injected into the HPLC.\nChromatographic Conditions:\n• Column: Phenomenex, Luna 5u Pnenyl hexyl 250*4.6, 5μ • Column oven temperature: 350° C. • Injection Vol.: 5 μL • Flow rate: 1.00 mL/min • Mobile Phase: Reservoir A—Milli Q Water; Reservoir C—Acetonitrile; Isocratic—Milli Q water/Acetonitrile (80:20% v/v) • Run Time: 15 minutes • Wavelength: 207 nm\nCalculation: Calibration standards were injected in duplicate and the calibration curve for NBTPT was constructed by plotting the concentration (mg/mL) in X-axis and Instrument response (area) in the Y-axis. The unknown concentrations of NBTPT in the samples were calculated using the formula y=mx+c with the appropriate dilution factor applied. […]"}
{"smiles": "CCCCNP(N)(N)=S", "note": "[compound 4, N-(n-butyl) thiophosphoric triamide]", "values": [{"measurement": "% NBTPT Degradation", "value": 0, "unit": "%"}]}
